Measurements as given in patent US20120101147A1, “INHIBITION OF HDAC2 TO PROMOTE MEMORY” (The General Hospital Corporation d/b/a Massachusetts …, priority 2008, published 2012).

How the values were obtained:
[1] = test system: H4K12 acetylation in HEK293 cells; experiment: Western blot of H4K12 acetylation in whole HEK293 cells; type: cell-based; conditions: 10 uM, 6 hour
Description: Series of compounds incubated with whole HEK293 cells at 10 uM for a 6 hour time period. Western blot showing increased acetylation levels over DMSO controls using anti-acetyl H4K12 antibodies and horseradish peroxidase conjugated secondary antibody along with a luminol-based substrate.
Relative to the DMSO control, multiple selectivity profiles are effective in increasing H4K12 acetylation levels. […] BRD-4097 is the negative control.
Standard western blotting methods were used to measure the effects of HDAC inhibitors on histone acetylation marks in […]. Series of compounds were incubated with whole HEK293 cells at 10 uM for a 6 hour time period. […] Quantification of the raw western data (FIG. 10) established that relative to the DMSO control, multiple selectivity profiles are effective in increasing H4K12 acetylation levels, and that HDAC 1,2 and HDAC 1,2,3 selective inhibitors have robust HDAC activity in whole cells on a specific histone loci (H4K12).

mice = experiment: Context-dependent fear conditioning memory test; type: in vivo, mouse; conditions: C57/BL6 WT mice; 45 mg/kg every day for 10 days; foot shock 0.8 mA
Description: Fear conditioning tests Context-dependent fear conditioning. Training consists of a 3 min exposure of mice to the conditioning box (context) followed by a foot shock (2 sec, 0.5/0.8/1.0 mA, constant current). The memory test was performed 24 hr later by re-exposing the mice for 3 min into the conditioning context. Freezing, defined as a lack of movement except for heart beat and respiration associated with a crouching posture, was recorded every 10 sec by two trained observers (one was unaware of the experimental conditions) during 3 min (a total of 18 sampling intervals). The number of observations indicating freezing obtained as a mean from both observers was expressed as a percentage of the total number of observations.
Chemical administration Suberoylanilide hydroxamic acid (SAHA) was synthesized as described previously in WO 93/07148 PTC/US92/08454. Sodium butyrate was purchased from Sigma (cat.B5887). SAHA and WT-161 were dissolved in DMSO as stock solutions and diluted in saline just before injection. Sodium butyrate was prepared in saline. Mice received intraperitoneal injection daily with either SAHA or saline for 10 days or 21 days.
C57/BL6 WT mice were injected with vehicle or BRD-6929 for 10 days. On day 11, mice were trained in contextual fear conditioning paradigm (Training consisted of a 3 min exposure of mice to the conditioning box (context, TSE) followed by a foot shock (2 sec, 0.8 mA, constant current). One hour after training, mice were injected with BRD-6929 or vehicle. On day 12, mice were returned to the training box and the freezing behavior were monitored and recorded.

[2] = test system: H4K12 acetylation in primary striatal cells; experiment: Western blot of H4K12 acetylation in primary striatal cells; type: cell-based, mouse; conditions: 1 and 10 uM; relative to DMSO
Excerpt: A. Western blots of primary striatal cells isolated from mouse brain that have been treated with HDAC inhibitors. Two sets of data with 3 independent samples/set. B. Histograms represent the quantification of westerns shown in panel A.
Two sets of data with 3 independent samples/set are presented. Histograms representing the quantification of westerns are also shown. Relative to DMSO controls, BRD-6929 has a significant effect on the acetylation levels of histone locus H4K12. BRD-6929 treatment results in a 5-10 fold increase at 1 and 10 uM. BRD-6929 is an HDAC 1,2 selective compound, and has 200× selectivity for HDAC1,2 vs. HDAC3. […] In this case the data was compared to controls: SAHA and BRD-3696 (CI-994). An HDAC1,2 selective compound is as effective at increasing acetylation as an HDAC1,2,3 inhibitor and a pan inhibitor (i.e. SAHA). Inhibiting HDAC1,2 is sufficient to effect increased acetylation at this histone locus.

H2BK5 = experiment: Western blot of cortex after acute treatment: H2BK5 acetylation; type: in vivo, mice; conditions: cortex after 1 hour
Description: (§1) The experimental protocol for acute treatment with BRD-6929 and the corresponding effects on histone acetylation in brain specific regions of adult male C57BL/6J mice is shown in FIG. 18. Crude Protein Lysis Protocol for western blot analysis of specific brain sections.
(§2) a. On ice, thaw frozen tissue and immediately homogenize carefully in 250 uL of ice-cold Suspension Buffer.
(§3) b. As soon as possible, add an equal volume of 2×SDS gel-loading buffer, pipetting up and down to mix.
(§4) 2. Place the sample at 95° C. for 5 min.
(§5) 3. Shear viscous chromosomal DNA by smoothly passaging through 23-25 gauge hypodermic needle (2-3×) or by sonicating briefly (Al used the needle method and it worked fine). Avoid foaming/bubbles.
(§6) 4. Centrifuge the sample at 10,000 g for 10 min at room temperature, transferring supernatant to fresh tube.

tetra-acetylated H2B [3] = experiment: Western blot of cortex after acute treatment: tetra-acetylated H2B; type: in vivo, mice
Description: as §1, §2, §3, §4, §5, §6

tetra-acetylated H2B [4] = experiment: Western blot of whole brain after chronic administration: tetra-acetylated H2B; type: in vivo, mice; conditions: every day for 10 days
tetra-acetylated H2B [5] = experiment: Western blot of tetra-acetylated H2B in primary striatal cells; type: cell-based, mouse; conditions: relative to DMSO controls
Description: (§7) Four compounds were tested including CI-994 (BRD-3696) and SAHA. […] BRD-6929 and BRD-5298 treatment results in a 2-5 fold increase in both marks at 1 and 10 uM.

tetra-acetylated H4 = experiment: Western blot of tetra-acetylated H4 in primary striatal cells; type: cell-based, mouse; conditions: relative to DMSO controls
Description: as §7

[6] = Pharmacokinetics in plasma and brain after single i.p. dose; type: in vivo; conditions: single 45 mg/kg i.p.; C-57 mice
Description: FIG. 17 is the concentration-time curve of BRD-6929 in plasma and brain following single 45 mg/kg i.p. dose in mice.
FIG. 17 represents a summary of the pharmacokinetic data after a single dose of 45 mg/kg BRD-6929 administered systemically via intraperitoneal injection. The concentration time curves for BRD-6929 in the plasma and brain of C-57 mice from 5 min to 24 h are shown.

H2B acetylation = experiment: Immunofluorescence: H2B acetylation in primary neuronal cell cultures; type: cell-based, mouse; conditions: 1 and 10 uM, 6 h
Description: (§8) 1) Compounds were pin transferred from 384-well plates (Abgene) using a 185 nl pin tool using a no touch bottom protocol.
(§9) 1) Media was aspirated using a plate washer (Tecan) protocol that leaves ˜5 ul residual volume and without touching the bottom of plates); or alternatively, wells were gently aspirated to remove media with 12-channel aspirator wand.
(§10) 2) A multichannel pipet or use liquid handling system (e.g. Combi, standard tubing; slow speed) was used to add 75 ul formaldehyde (4% in PBS) and wells incubated 10 min at room temperature.
(§11) 3) Formaldehyde was aspirated and cells rinsed 3 times with 100 ul PBS;
(§12) 4) PBS was aspirated and 100 ul blocking/permeablization buffer (0.1% Triton-X100, 2% BSA, in PBS) added and wells incubate 1 hour at room temperature.
(§13) 5) Blocking buffer was aspirated and 50 ul primary antibody diluted 1:500 in blocking buffer was added and wells incubated overnight at 4 degrees.
(§14) 1) Primary antibody was aspirated and wells rinsed 3 times with 100 ul blocking buffer
(§15) 2) 50 ul of secondary antibody diluted 1:500 and with Hoeschst (1:1000 from 10 mg/mL (16 mM) stock) added and wells incubated 1.5 hours at room temperature covered in foil to prevent photobleaching.
(§16) 3) Wells were rinsed 3 times with 100 ul PBS, and a 100 uls of PBS added and the plates, sealed
(§17) 4) Plates were then read on Acumen/IX Micro

HDAC8 = target: T1, HDAC8 (Homo sapiens, UniProt Q9BY41); experiment: In vitro enzymatic inhibition assay against HDAC isoforms; type: biochemical
T1 sequence (Q9BY41 1-377): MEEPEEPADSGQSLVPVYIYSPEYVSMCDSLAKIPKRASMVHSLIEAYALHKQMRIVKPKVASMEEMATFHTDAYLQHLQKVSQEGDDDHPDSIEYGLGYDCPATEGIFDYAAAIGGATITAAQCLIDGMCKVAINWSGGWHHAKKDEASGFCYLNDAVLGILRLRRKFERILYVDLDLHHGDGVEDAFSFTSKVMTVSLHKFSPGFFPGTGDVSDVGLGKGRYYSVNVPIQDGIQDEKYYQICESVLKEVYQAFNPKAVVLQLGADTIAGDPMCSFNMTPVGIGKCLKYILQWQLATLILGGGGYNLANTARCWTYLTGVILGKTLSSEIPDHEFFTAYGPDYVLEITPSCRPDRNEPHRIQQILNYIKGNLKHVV
Description: (§18) The enzymatic inhibitory activity of multiple HDAC inhibitors was assayed against several of the known HDAC isoforms and is shown in FIG. 8. SAHA was included as a reference mixed class I-class II inhibitor. […] All of the BRD numbered compounds are derived from the ortho-anilide class of compounds. Not all compounds from this class are expected to bind the class II HDACs.

Class II HDAC enzymes = experiment: as above; type: biochemical
Description: as §18

[7] = test system: primary neuronal cultures; experiment: Immunofluorescence: overall cell number in primary neuronal cultures; type: cell-based, mouse; conditions: 1 and 10 uM, 6 h
Description: as §8, §9, §10, §11, §12, §13, §14, §15, §16, §17

HDAC1,2 vs. HDAC3 = experiment: Selectivity for HDAC1,2 vs. HDAC3; type: biochemical
Excerpt: All of the BRD numbered compounds are derived from the ortho-anilide class of compounds.
Two sets of data with 3 independent samples/set are presented. Histograms representing the quantification of westerns are also shown.

H4K12 acetylation = experiment: Immunofluorescence: H4K12 acetylation in primary cultures (striatum); type: cell-based, mouse; conditions: 10 uM, 6 h
Description: as §8, §9, §10, §11, §12, §13, §14, §15, §16, §17

| Compound | H4K12 acetylation levels relative to DMSO control [1] | memory in contextual fear conditioning paradigm (% time freezing) (mice) | increase in acetylation of histone locus H4K12 [2] | increase in acetylation levels for H2BK5 (H2BK5) | increase in H2B (tetra) histone acetylation in cortex (tetra-acetylated H2B [3]; acute treatment, normalized to histone H3) | levels of tetra-acetylated H2B in the cortex (tetra-acetylated H2B [3]; single systemic dose, adult male C57BL/6J mice) | tetra-acetylated H2B relative to the vehicle control (tetra-acetylated H2B [4]) | tetra-acetylated H2B (tetra-acetylated H2B [5]) | tetra-acetylated H4 (tetra-acetylated H4) | blood-brain barrier penetration [6] | brain AUC [6] | brain Cmax [6] | increase in H2B tetra-acetylation (H2B acetylation; primary cultures (striatum)) | H2B acetylation (H2B acetylation; primary neuronal cell cultures) | inhibition of HDAC8 (HDAC8) | inhibition of Class II HDAC enzymes (Class II HDAC enzymes) | overall cell number ([7]; primary cultures (cortex and striatum)) | overall cell number ([7]; primary neuronal cell cultures) | selectivity for HDAC1,2 vs. HDAC3 (HDAC1,2 vs. HDAC3) | H4K12 acetylation (H4K12 acetylation) |
| --- | --- | --- | --- | --- | --- | --- | --- | --- | --- | --- | --- | --- | --- | --- | --- | --- | --- | --- | --- | --- |
| Nc1ccc(-c2cccs2)cc1NC(=O)c1ccc(/C=C/C(=O)NCCc2ccccn2)cc1 [BRD-9853, (E)-N-(2-amino-5-(thiophen-2-yl)phenyl)-4-(3-oxo-3-(2-(pyridin-2-yl)ethylamino)prop-1-enyl)benzamide] | minimal activity |  |  |  |  |  |  |  |  |  |  |  |  |  |  |  |  |  |  |  |
| CC(=O)Nc1ccc(C(=O)Nc2cc(-c3cccs3)ccc2N)cc1 [BRD-6929, 4-acetamido-N-(2-amino-5-(thiophen-2-yl)phenyl)benzamide] |  | improved | 5-10 fold | 1.5-2 fold | 1.5-2 fold | significant increase | increase | trend toward increasing | significantly increased | crosses the blood-brain barrier | 3.9 µM | 830 nM | 2-3 fold | significant increase | does not inhibit | does not inhibit | does not cause an increase or decrease | do not cause an increase or decrease | 200 × | increase |
